Experimental data taken from patent US10752587B2, “Homobispiperidinyl derivatives as liver X receptor beta agonists, compositions and their use” (Merck Sharp & Dohme Corp., priority 2015, dated 2020).
pEC50: −log10 of the molar value. Read-outs that look alike come from different tables or passages of the source.

Tests used:
[1] = biological target: T1, glutathione-S-transferase (GST) tagged LXRbeta LBD (ligand binding domain) (Homo sapiens, UniProt P55055); test: LanthaScreen TR-FRET Liver X Receptor Coactivator Assay, co-activator recruitment to LXRbeta LBD; type: biochemical; details: for Emax: read-out: LXR beta Activity @ max dose (%); for pEC50 / EC50: potency (Inflection Point, IP), co-activator recruitment to LXRbeta LBD, in relation to T0901317; for pEC50: read-out: LXR beta IP; for EC50: LXR beta IP (nM)
T1 construct: purchased Invitrogen pv4658.pps
T1 sequence (P55055 222-460 limits assumed): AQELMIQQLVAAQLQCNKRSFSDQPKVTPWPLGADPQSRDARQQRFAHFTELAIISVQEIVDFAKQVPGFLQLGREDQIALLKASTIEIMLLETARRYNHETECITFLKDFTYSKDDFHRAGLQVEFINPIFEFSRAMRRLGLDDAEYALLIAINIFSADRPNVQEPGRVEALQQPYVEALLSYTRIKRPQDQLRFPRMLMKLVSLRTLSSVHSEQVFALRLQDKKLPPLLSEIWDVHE
Summary of the method: (§1)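 Efficacy (Emax) and inflection-point potency were scaled to reference agonist T0901317, acting on both LXR subtypes. Ligand-driven coactivator peptide recruitment was detected by TR-FRET after room-temperature incubation with terbium anti-GST antibody.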

[2] = biological target: T2, glutathione-S-transferase (GST) tagged LXRalpha LBD (ligand binding domain) (Homo sapiens, UniProt Q13133); test: LanthaScreen TR-FRET Liver X Receptor Coactivator Assay, co-activator recruitment to LXRalpha LBD; type: biochemical; details: for Emax: read-out: LXR alpha Activity @ max dose (%); for LXR alpha IP (nM) / pEC50 / EC50: potency (Inflection Point, IP), co-activator recruitment to LXRalpha LBD, in relation to T0901317; for pEC50: read-out: LXR alpha IP; for EC50: LXR alpha IP (nM)
T2 construct: purchased Invitrogen pv4655
T2 sequence (Q13133 209-447 limits assumed): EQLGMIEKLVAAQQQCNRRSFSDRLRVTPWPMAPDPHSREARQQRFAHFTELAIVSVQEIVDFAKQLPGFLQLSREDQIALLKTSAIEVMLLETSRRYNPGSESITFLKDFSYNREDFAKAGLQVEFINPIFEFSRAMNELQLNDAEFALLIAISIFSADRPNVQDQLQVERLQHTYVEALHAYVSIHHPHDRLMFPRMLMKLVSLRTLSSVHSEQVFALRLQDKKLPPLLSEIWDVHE
Summary of the method: as §1

[3] = efficacy at max dose, in relation to reference dual agonist T0901317

| Compound | Emax [1, 3] [%] | pEC50 [1] | Emax [2, 3] [%] | LXR alpha IP (nM) [2] | pEC50 [2] | LXR alpha Activity @ max dose (%) [2, 3] [%] | EC50 [1] [nM] | Emax [1] [%] | Emax [2] [%] | EC50 [2] [nM] |
| --- | --- | --- | --- | --- | --- | --- | --- | --- | --- | --- |
| CN(C)C(=O)c1ccc(N2CCC(CC3CCN(C(=O)C(F)(F)c4ccc(F)cc4)CC3)CC2)nc1Cl [Example 7-85, 2-chloro-6-[4-({1-[difluoro(4-fluorophenyl)acetyl]piperidin-4-yl}methyl)piperidin-1-yl]-N,N-dimethylpyridine-3-carboxamide] | 29 | 6.63 | 7 | NO IP |  |  |  |  |  |  |
| CN(C)C(=O)c1ccc(N2CCC(CC3CCN(C(=O)C(F)(F)c4ccccc4)CC3)CC2)nc1Cl [Example 7-86, 2-chloro-6-[4-({1-[difluoro(phenyl)acetyl]piperidin-4-yl}methyl)piperidin-1-yl]-N,N-dimethylpyridine-3-carboxamide] | 75 | 6.78 | 32 | NO IP |  |  |  |  |  |  |
| CN(C)C(=O)c1ccc(N2CCC(CC3CCN(C(=O)[C@](O)(c4cccc(C(F)(F)F)c4)C(F)(F)F)CC3)CC2)nc1Cl [Example 7-87, 2-chloro-N,N-dimethyl-6-{4-[(1-{(2R)-3,3,3-trifluoro-2-hydroxy-2-[3-(trifluoromethyl)phenyl]propanoyl}piperidin-4-yl)methyl]piperidin-1-yl}pyridine-3-carboxamide] | 69 | 8.15 | 23 |  | 6.60 |  |  |  |  |  |
| Cc1cccc([C@@](O)(C(=O)N2CCC(CC3CCN(c4ccc(C(=O)N(C)C)c(Cl)n4)CC3)CC2)C(F)(F)F)c1 [Example 7-88, 2-chloro-N,N-dimethyl-6-[4-({1-[(2R)-3,3,3-trifluoro-2-hydroxy-2-(3-methylphenyl)propanoyl]piperidin-4-yl}methyl)piperidin-1-yl]pyridine-3-carboxamide] | 52 | 8.40 | 15 | NO IP |  |  |  |  |  |  |
| COc1cc(F)cc(C(O)(C(=O)N2CCC(CC3CCN(c4ccc(C(=O)N(C)C)c(Cl)n4)CC3)CC2)C(F)(F)F)c1 (stereo not drawn) [Example 7-89, 2-chloro-N,N-dimethyl-6-[4-({1-[3,3,3-trifluoro-2-(3-fluoro-5-methoxyphenyl)-2-hydroxypropanoyl]piperidin-4-yl}methyl)piperidin-1-yl]pyridine-3-carboxamide] | 86 | 8.22 | 19 |  | 6.95 |  |  |  |  |  |
| CCc1cccc(C(O)(C(=O)N2CCC(CC3CCN(c4ccc(C(=O)N(C)C)c(Cl)n4)CC3)CC2)C(F)(F)F)c1 (stereo not drawn) [Example 7-90, 2-chloro-6-[4-({1-[2-(3-ethylphenyl)-3,3,3-trifluoro-2-hydroxypropanoyl]piperidin-4-yl}methyl)piperidin-1-yl]-N,N-dimethylpyridine-3-carboxamide] | 41 | 8.22 | 10 | NO IP |  |  |  |  |  |  |
| CC(C)Oc1cccc([C@@](O)(C(=O)N2CCC(CC3CCN(c4ccc(C(=O)N(C)C)c(Cl)n4)CC3)CC2)C(F)(F)F)c1 [Example 7-91, 2-chloro-N,N-dimethyl-6-{4-[(1-{(2R)-3,3,3-trifluoro-2-hydroxy-2-[3-(1-methylethoxy)phenyl]propanoyl}piperidin-4-yl)methyl]piperidin-1-yl}pyridine-3-carboxamide] | 58 | 8.10 | 14 | NO IP |  |  |  |  |  |  |
| CCOc1cccc([C@@](O)(C(=O)N2CCC(CC3CCN(c4ccc(C(=O)N(C)C)c(Cl)n4)CC3)CC2)C(F)(F)F)c1 [Example 7-92, 2-chloro-6-[4-({1-[(2R)-2-(3-ethoxyphenyl)-3,3,3-trifluoro-2-hydroxypropanoyl]piperidin-4-yl}methyl)piperidin-1-yl]-N,N-dimethylpyridine-3-carboxamide] | 51 | 8.22 | 8 | NO IP |  |  |  |  |  |  |
| CN(C)C(=O)c1ccc(N2CCC(CC3CCN(C(=O)[C@](O)(c4cc(Cl)cc(Cl)c4)C(F)(F)F)CC3)CC2)nc1Cl [Example 7-93, 2-chloro-6-[4-({1-[(2R)-2-(3,5-dichlorophenyl)-3,3,3-trifluoro-2-hydroxypropanoyl]piperidin-4-yl}methyl)piperidin-1-yl]-N,N-dimethylpyridine-3-carboxamide] | 55 | 8.22 |  | NO IP |  | 1 |  |  |  |  |
| CN(C)C(=O)c1ccc(N2CCC(CC3CCN(C(=O)C(O)(c4ccccc4)C4CCCC4)CC3)CC2)nc1Cl (stereo not drawn) [Example 7-94, 2-chloro-6-[4-({1-[cyclopentyl(hydroxy)phenylacetyl]piperidin-4-yl}methyl)piperidin-1-yl]-N,N-dimethylpyridine-3-carboxamide] |  |  |  | NO IP |  |  | 72 | 62 | 10 |  |
| CN(C)C(=O)c1ccc(N2CCC(CC3CCN(C(=O)C(O)(c4ccccc4)c4ccccc4)CC3)CC2)nc1Cl [Example 7-95, 2-chloro-6-[4-({1-[hydroxy(diphenyl)acetyl]piperidin-4-yl}methyl)piperidin-1-yl]-N,N-dimethylpyridine-3-carboxamide] |  |  |  | NO IP |  |  | 98 | 21 | 1 |  |
| CN(C)C(=O)c1ccc(N2CCC(CC3CCN(C(=O)C(O)(c4ccccc4)c4ccsc4)CC3)CC2)nc1Cl (stereo not drawn) [Example 7-96, 2-chloro-6-[4-({1-[hydroxy(phenyl)thiophen-3-ylacetyl]piperidin-4-yl}methyl)piperidin-1-yl]-N,N-dimethylpyridine-3-carboxamide] |  |  |  | NO IP |  |  | 89 | 23 | 5 |  |
| CN(C)C(=O)c1ccc(N2CCC(CC3CCN(C(=O)C(O)(c4ccccc4)C4CCC4)CC3)CC2)nc1Cl (stereo not drawn) [Example 7-97, 2-chloro-6-[4-({1-[cyclobutyl(hydroxy)phenylacetyl]piperidin-4-yl}methyl)piperidin-1-yl]-N,N-dimethylpyridine-3-carboxamide] |  |  |  |  |  |  | 40 | 98 | 38 | 1180 |
| CN(C)C(=O)c1ccc(N2CCC(CC3CCN(C(=O)[C@](O)(c4ccccc4)C4CCCC4)CC3)CC2)nc1Cl [Example 7-98, 2-chloro-6-[4-({1-[(2R)-2-cyclopentyl-2-hydroxy-2-phenylacetyl]piperidin-4-yl}methyl)piperidin-1-yl]-N,N-dimethylpyridine-3-carboxamide] |  |  |  |  |  |  | 74 | 76 | 19 | 1090 |
| CN(C)C(=O)c1ccc(N2CCC(CC3CCN(C(=O)C(O)(c4ccccc4)C4CC4)CC3)CC2)nc1Cl (stereo not drawn) [Example 7-99, 2-chloro-6-[4-({1-[cyclopropyl(hydroxy)phenylacetyl]piperidin-4-yl}methyl)piperidin-1-yl]-N,N-dimethylpyridine-3-carboxamide] |  |  |  |  |  |  | 48 | 74 | 20 | 2790 |
| CN(C)C(=O)c1ccc(N2CCC(CC3CCN(C(=O)C(O)(c4ccccc4)C4CCCCC4)CC3)CC2)nc1Cl (stereo not drawn) [Example 7-100, 2-chloro-6-[4-({1-[cyclohexyl(hydroxy)phenylacetyl]piperidin-4-yl}methyl)piperidin-1-yl]-N,N-dimethylpyridine-3-carboxamide] |  |  |  | NO IP |  |  | 200 | 37 | 4 |  |
| COc1cc(F)cc([C@@](O)(C(=O)N2CCC(CC3CCN(c4ccc(C(=O)N(C)C)c(Cl)n4)CC3)CC2)C(F)(F)F)c1 [Example 7-101, 2-chloro-N,N-dimethyl-6-[4-({1-[(2R)-3,3,3-trifluoro-2-(3-fluoro-5-methoxyphenyl)-2-hydroxypropanoyl]piperidin-4-yl}methyl)piperidin-1-yl]pyridine-3-carboxamide] | 84 | 8.40 | 22 |  | 7.39 |  |  |  |  |  |
| COc1cc(F)cc([C@](O)(C(=O)N2CCC(CC3CCN(c4ccc(C(=O)N(C)C)c(Cl)n4)CC3)CC2)C(F)(F)F)c1 [Example 7-102, 2-chloro-N,N-dimethyl-6-[4-({1-[(2S)-3,3,3-trifluoro-2-(3-fluoro-5-methoxyphenyl)-2-hydroxypropanoyl]piperidin-4-yl}methyl)piperidin-1-yl]pyridine-3-carboxamide] | 114 | 7.11 | 16 | NO IP |  |  |  |  |  |  |
